Assay results from the supplement of paper PMC6470124.

Assays:
[1] = absolute recovery over vacuum-assisted evaporative concentration; higher = better recovery; conditions: enrichment method: VEC
Outline: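 Water samples (influent 6 mL, effluent 15 mL, surface and nanopure water 60 mL) were spiked with standards before concentration, after concentration or not at all, at 200 ng/L (nanopure/surface) or 1000 ng/L (wastewater), with class- and compound-specific adjustments. They were evaporated at 55 °C and 20 mbar to about 0.3 mL, brought to 0.4 mL and centrifuged. Internal standards were added afterwards and samples were analysed by LC-HRMS/MS. Absolute recovery was (response ratio pre − unspiked)/(post − unspiked) × 100, using averages of ≥ 2 replicates.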

[2] = LC retention time (Atlantis T3, 5-95% MeOH gradient, 0.1% formic acid); higher = more retained / less polar
Outline: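 Retention times were recorded for reference standards (purity ≥ 95%) on a polar reversed-phase C18 column (Atlantis T3, 3 × 150 mm, 3 μm) at 0.3 mL/min. Elution used water and methanol, each with 0.1% formic acid, in a gradient from 5 to 95% methanol over 17.5 min. Detection was by high-resolution tandem mass spectrometry on a QExactive Plus, with positive and negative electrospray in separate runs. Peaks were found and integrated in TraceFinder (5 ppm tolerance, at least three points per peak) and then checked by hand.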

[3] = absolute recovery over mixed-bed multilayer solid-phase extraction; higher = better recovery; conditions: enrichment method: SPE
Outline: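 Absolute recovery rests on background-corrected response ratios of pre- versus post-spiked samples, averaged over at least two replicates. Wastewater (100–250 mL, pH 6.5, glass-fibre filtered) was spiked at 1000 ng/L and unfiltered nanopure water (1000 mL) at 200 ng/L, before or after three-layer mixed-bed cartridge extraction or not at all, with exceptions for some classes. Analysis after internal standard addition used liquid chromatography with high-resolution tandem mass spectrometry in both ionisation modes.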

Compound	absolute recovery ([1]; wastewater effluent) [%]	absolute recovery ([1]; wastewater influent) [%]	LC retention time [2] [min]	absolute recovery ([3]; nanopure water) [%]	absolute recovery ([3]; surface water) [%]	absolute recovery ([3]; wastewater effluent) [%]	absolute recovery ([3]; wastewater influent) [%]
O=C(Nc1ccccc1-c1ccc(Cl)cc1)c1cccnc1Cl [Boscalid]	88.4	105	19.4	102	97.2	95.2	104
CCCCc1c(C)nc(NCC)nc1OS(=O)(=O)N(C)C [Bupirimate]	105	117	19.3	83.8	85.1	93.3	74.8
CC(Oc1ccc(Oc2ncc(C(F)(F)F)cc2Cl)cc1)C(=O)[O-] (stereo unspecified) [Haloxyfop]	102	95.4	21	84.3	73.9	84.4	95.4
Cc1cccc(C)c1N(Cn1cccn1)C(=O)CCl [Metazachlor]	104	96	18.3	96.5	97	93.4	94.5
Cc1[nH]c(=O)n(C(C)(C)C)c(=O)c1Cl [Terbacil]	102	105	17.6	96.1	96	97.3	97.2
COC(=O)C(Cc1ccccc1)NC(=O)C([NH3+])CC(=O)[O-] (stereo unspecified) [Aspartam]	48	36.3	12.6	50	41.1	53.3	58.7
[O-]n1nnc2ccccc21 [1-Hydroxybenzotriazole H]	126	73	11.6	99.2	45.5	60.4	67.3
COCC(C)N(C(=O)CCl)c1c(C)csc1C (stereo unspecified) [Dimethenamid]	96	92.1	19.6	94.4	92.8	91.7	92.1
Cc1cc(Cl)ccc1OCCCC(=O)[O-] [MCPB]	103		20.3	100	95.2	97.5	108
CC1CC2C3CCC4=CC(=O)C=CC4(C)C3(F)C(O)CC2(C)C1(O)C(=O)CO (stereo unspecified) [Betamethasone]	104	102	18.7	93.8	88.9	90.5	98.7
CCN(C)C(=O)Oc1cccc(C(C)[NH+](C)C)c1 (stereo unspecified) [Rivastigmin]	102	105	12.2	90.4	94.7	90.6	98.8
O=C(Nc1ccccc1)N(Cc1ccc(Cl)cc1)C1CCCC1 [Pencycuron]	117	124	21.4	84.2	110		80.4
NC(=O)N1c2ccccc2C(O)C(O)c2ccccc21 (stereo unspecified) [Carbamazepin-10-11-dihydro-10-11-dihydroxy]	97.7	93.4	15.3	95.2	97.5	94.2	96
O=C1NCCN1Cc1ccc(Cl)nc1 [Imidacloprid-urea]	108	104	13.2	117	108	103	94.9
COc1ccc2c(c1)C13CCCCC1C(C2)[NH+](C)CC3 (stereo unspecified) [Dextromethorphan]	102	107	14.5	86.8	94.5	93.4	77.6
CC(C)Nc1nc(N)nc(Cl)n1 [Atrazin-Desethyl]	102	101	15.3	92.5	96.9	92.1	91.6
CCOC(=O)C1(c2ccccc2)CCC=CC1[NH+](C)C (stereo unspecified) [Tilidine]	70	63.5	12.6	73.9	78.8	79.5	83.5
[NH3+]C12CC3CC(CC(C3)C1)C2 [Amantadine]	104	114	12.1	90.7	79.3	86.2	87.2
Cc1nnc(-c2ccccc2)c(=O)n1N [Metamitron]	106	98.5	14.3	97.1		95.8	97.5
O=S(=O)([O-])c1ccc2ccc(S(=O)(=O)[O-])cc2c1 [2-7-Naphthalenedisulfonic-acid]	108	112	8.38	93.9	77.6	77.2	88.8
N#CN=C1SCCN1Cc1ccc(Cl)nc1 [Thiacloprid]	102	106	15.1	97.8		96.9	87.5
CC(C)(Oc1ccc(CCNC(=O)c2ccc(Cl)cc2)cc1)C(=O)[O-] [Bezafibrat]	104	103	19.5	98	98.8	92.9	94
CON=C(C(=O)OC)c1ccccc1COc1ccccc1C [Kresoxim-methyl]	98.9	89.9	20.7	103	110	103	93.5
CS(=O)(=O)c1ccc(C(=O)[C-]2C(=O)CCCC2=O)c(Cl)c1 [Sulcotrion]	103	101	16.7	97.7	93.4	94.8	93.9
O=C1CCC2(O)C3Cc4ccc(O)c5c4C2(CC[NH+]3CC2CC2)C1O5 (stereo unspecified) [Naltrexon]	103	99	9.63	87.8	98.2	95.7	94.3
Cc1ccc(-c2c(Cl)nc(C#N)n2S(=O)(=O)N(C)C)cc1 [Cyazofamid]	99.5	104	20.3	66.4	64.6	58	63.2
CCC1(c2cccc(O)c2)CCCC[NH+](C)C1 (stereo unspecified) [Meptazinol]	110	103	12.1	90.6	92.9	86.5	91.9

The next lines start with the values.

absolute recovery ([1]; wastewater effluent) [%]	absolute recovery ([1]; wastewater influent) [%]	LC retention time [2] [min]	absolute recovery ([3]; nanopure water) [%]	absolute recovery ([3]; surface water) [%]	absolute recovery ([3]; wastewater effluent) [%]	absolute recovery ([3]; wastewater influent) [%]	Compound
111	144	19	74.1	27	36.7	44.8	CCOc1ccc2ccccc2c1C(=O)NC1C(=O)N2C1SC(C)(C)C2C(=O)[O-] (stereo unspecified) [Nafcillin]
51.7	49.7	16.3	71.4	78.7	90.1	85	COc1ccc(CCC(=O)c2c(O)cc(OC3OC(CO)C(O)C(O)C3OC3OC(C)C(O)C(O)C3O)cc2O)cc1O (stereo unspecified) [Neohesperidin-dihydrochalcon]
99.3	90.4	10.4	92.4	91.4	83.6	93.6	Nc1ccc(S(=O)(=O)[N-]c2nccs2)cc1 [Sulfathiazol]
105	101	12.2	98.7	96.1	94	90	CC(=O)Nc1ccc(S(=O)(=O)[N-]c2nccs2)cc1 [N4-Acetyl-Sulfathiazol]
104	106	19.2	98.1	103	95.6	93.8	CCOc1ccc(NC(=O)OC(C)C)cc1OCC [Diethofencarb]
102	105	11.7	79.2	77.5	81.8	92.3	c1ccc2[nH]c(-c3cscn3)nc2c1 [Thiabendazol]
74.1	81.1	15.5	84.7	77.4	84.9	144	CC(=O)N(C)c1ccccc1 [N-Methylacetanilid]
89.2	81.8	17.2	91.9	91.3	93.8	95.2	COC(=O)C(Cc1ccccc1)NC(=O)C(CC(=O)[O-])[NH2+]CCC(C)(C)C (stereo unspecified) [Neotam]
103	103	16.7	100	97.7	96.3	84.9	COc1cc(OC)n2nc([N-]S(=O)(=O)c3c(C(F)(F)F)ccnc3OC)nc2n1 [Pyroxsulam]
102	103	17.7	99.9	94.1	95.4	95.4	CC(C)c1ccc(NC(N)=O)cc1 [Isoproturon-didemethyl (=1-(4-Isoprophenyl)urea)]
88.8	12.8	6.58	86.7	94.5	94.3	91.1	Nc1ccn(C2OC(CO)C(O)C2(F)F)c(=O)n1 (stereo unspecified) [Gemcitabin]
101	97.9	16.2	77.3		78.8	87.3	NS(=O)(=O)c1cc(C(=O)[O-])c(NCc2ccco2)cc1Cl [Furosemid]
103		18.9	99.6	97.1	100		COc1c(C)c2c(c(O)c1CC=C(C)CCC(=O)[O-])C(=O)OC2 [Mycophenolic-Acid]
101	102	13	77.1	86	85.7	88.7	CCNc1nc(NCC)nc(OC)n1 [Simeton]
103	95.9	17.3	91.1	85.3	96.6	93.9	CCC1OC(=O)C(C)C(OC2CC(C)(OC)C(O)C(C)O2)C(C)C(OC2OC(C)CC([N+](C)(C)[O-])C2O)C(C)(OC)CC(C)C(=O)C(C)C(O)C1(C)O (stereo unspecified) [Clarithromycin-N-Oxide]
100	102	14.9	82.8	86.5	91.2	84.9	C[NH+](C)CCC=C1c2ccccc2COc2ccc(CC(=O)[O-])cc21 [Olopatadine]
84.3	87.1	21.1	98	107	96.9	95	CCOC(=O)C1=NN(c2ccc(Cl)cc2Cl)C(C)(C(=O)OCC)C1 (stereo unspecified) [Mefenpyr-diethyl]
98.9	104	9.31	98	57.1	89.3	93.6	CS(=O)(=O)c1ccc(C(=O)[O-])c([N+](=O)[O-])c1 [Mesotrion-MNBA]
105	105	14.2	100	92.8	96.9	96.1	OC(Cn1cncn1)(Cn1cncn1)c1ccc(F)cc1F [Fluconazol]
102	97.7	21.9	101	95.7	93.3		Cc1cccc(Nc2ccccc2C(=O)[O-])c1C [Mefenamic-acid]
107	107	15.3	92.5	114	108	56.7	COc1cc2[nH+]c(N3CCN(C(=O)C4COc5ccccc5O4)CC3)nc(N)c2cc1OC (stereo unspecified) [Doxazosin]
	98.5	20.8	102				O=C([O-])Cc1ccccc1Nc1c(Cl)cccc1Cl [Diclofenac]
100	73.2	14.6	90.1	94.8	90	78.7	CCCC1CC(C(=O)NC(C(C)Cl)C2OC(SC)C(O)C(O)C2O)[NH+](C)C1 (stereo unspecified) [Clindamycin]
106	99.5	19.1	93.7	91.2	93	92.4	CC(C)N(C(=O)C(=O)[O-])c1ccc(F)cc1 [Flufenacet-OXA]
99.1		17.9	84.2	114	69.5	33.9	CCCCCCCCCCCC[N+](C)(C)C [Dodecyltrimethylammonium]
